Here are results for 1 compound from patent US20230390275A1, “APPLICATION OF ESTER GROUP-[…] PR[…] AND METABOLITE THEREOF IN PREPARATION OF DRUG FOR TREATING HEART FAILURE” (CHANGCHUN GENESCIENCE PHARMACEUTICAL CO., LTD., priority 2020, published 2023).

What all share (type): in vivo, Sprague Dawley rats
For experiment [1], the system named is heart failure rats. Description: Body weight and organ weight index (heart weight index, brain/heart weight ratio) in myocardial infarction heart failure rats. On the set-up: Brain weight/heart weight: unit not given here. To be noted: 3 mpk p.o. qd for 4 weeks; endpoint; Mean ± SEM, N = 7. The protocol:
• 1. Vehicle (0.5% CMC Na): formulation: 5 g of CMC Na was weighed out, and the volume was made up to 1000 mL with ddwater; the vehicle was obtained by stirring with a stirrer until the CMC Na was dissolved. • 2. EG017: formulation: a proper amount of the sample was weighed out, and a formula amount of the 0.5% CMC Na was added to prepare 1 mg/kg, 3 mg/kg and 10 mg/kg compound; the formulations were obtained by stirring with a stirrer until the sample was dissolved. Administration regimen: one week after animal modeling, sham/myocardial infarction rats were grouped and administered orally once daily for 28 consecutive days in a volume of 10 mL/kg. […]
One week after the modeling of animals, the isoflurane was used for anesthetizing the rats, the Vevo small animal ultrasonic imaging system was used for checking the function of the left ventricle of the model rats, and successful modeling was determined if the LVFE % was reduced by 30%. […]

In experiment [2] the test system is heart failure rats. The experiment in a line: Echocardiography of left ventricular function in myocardial infarction heart failure rats. To be noted: 3 mpk p.o. qd for 4 weeks; one day after last dose; Mean ± SEM, N = 7. As for the experimental part: (§1) • 1. Vehicle (0.5% CMC Na): formulation: 5 g of CMC Na was weighed out, and the volume was made up to 1000 mL with ddwater; the vehicle was obtained by stirring with a stirrer until the CMC Na was dissolved. • 2. EG017: formulation: a proper amount of the sample was weighed out, and a formula amount of the 0.5% CMC Na was added to prepare 1 mg/kg, 3 mg/kg and 10 mg/kg compound; the formulations were obtained by stirring with a stirrer until the sample was dissolved. Administration regimen: one week after animal modeling, sham/myocardial infarction rats were grouped and administered orally once daily for 28 consecutive days in a volume of 10 mL/kg.
(§2) After adaptive feeding, on the day of the experiment, the animals were anesthetized by intraperitoneal injection of pentobarbital sodium injection (60 mpk), atropine (0.5 mpk) was injected intraperitoneally to eliminate phlegm, and then the trachea was connected with a breathing machine to assist breathing; the chest was cut open from the place between the third rib and the fourth rib and then expanded with a chest expander; the pericardium was torn open, the left anterior descending coronary artery was ligated with 5-0 silk thread, the ribs and skin were sutured, and then the animals were placed on a heat preservation blanket for recovery after operation. The animals in the Sham group were also subjected to the same operation, except that the ligation with silk thread was not performed. After the operation was finished, all the animals are subjected to intramuscular injection of meloxicam (1 mpk) and gentamicin hydrochloride injection (8 mpk) for analgesia and anti-infection. One day before administration, the rats were subjected to cardiac ultrasonography after anesthesia by isoflurane inhalation (1.5%-5% v/v in oxygen), and the ligation was successful if there was no significant contraction of the anterior wall of the left ventricle, the left ventricular cavity was enlarged, and there was a 30% decrease in left ventricular ejection fraction compared to the normal control group. Successfully modeled rats were selected for subsequent experiments (note: ensure that there were 7 animals in each group after modeling, and 7 animals in the sham group). The rats in each group were subjected to intragastric administration of therapeutic agent once daily for four consecutive weeks. During the experiment, the living state of the animals was observed, and the abnormal conditions were recorded; endpoint index detection and sample collection were performed one day after the last dose.
(§3) One week after the modeling of animals, the isoflurane was used for anesthetizing the rats, the Vevo small animal ultrasonic imaging system was used for checking the function of the left ventricle of the model rats, and successful modeling was determined if the LVFE % was reduced by 30%.
(§4) Except for the Sham group, the animals were divided into 9 groups according to LVEF % and body weight, 7 rats in each group. […]

Experiment [3] concerns heart failure rats. The experiment in a line: Hemodynamics (heart rate, arterial blood pressure, left ventricular pressure) in myocardial infarction heart failure rats. On the set-up: Dp/dt max / Dp/dt min: unit not given here. To be noted: 3 mpk p.o. qd for 4 weeks; one day after last dose; Mean ± SEM, N = 7. As for the experimental part: as §1, §2, §3, §4

Regarding `C[C@@](COc1ccc(C#N)cc1)(OC(=O)c1cccnc1)C(=O)Nc1ccc(C#N)c(C(F)(F)F)c1` [EG017, (S)-1-((4-cyano-3-(trifluoromethyl)phenyl)amino)-3-(4-cyanophenoxy)-2-methyl-1-oxopropan-2-yl nicotinate], in the experiment with heart failure rats [1], the Brain weight/heart weight is recorded as 78.3 ± 4.31 and the Heart weight index was 0.376 ± 0.025 g/100 g body weight. In the experiment with heart failure rats [2], this compound showed a CO of 85.6 ± 9.55 mL/min, an EDV of 477 ± 48.2 µL, an ESV of 238 ± 52.0 µL and an FS of 29.0 ± 3.51 %. Moreover, in the experiment on heart failure rats [2], the LV mass is on record as 1497 ± 145^ mg, the LVEF is given as 52.7 ± 5.61 %, the LVPWTd is reported as 2.17 ± 0.17 mm and the LVPWTs was 2.66 ± 0.22 mm. In addition, the SV in the experiment on heart failure rats [2] was 238 ± 21.1 µL. In the experiment on heart failure rats [3], this compound registered a DBP of 76.1 ± 3.02 mmHg, a Dp/dt max of 6630 ± 432, a Dp/dt min of −6603 ± 707 and an HR of 352 ± 23.3 BPM. Moreover, in the experiment with heart failure rats [3], the LVSP is 98.5 ± 3.89& mmHg, the MBP stood at 88.3 ± 3.39 mmHg and the SBP is listed as 98.7 ± 3.62 mmHg.
